We go through 45 molecules from US10034886B2, “GLP-1 receptor modulators” (Celgene International II SÀRL, priority 2014, dated 2018).

T1 sequence (P43220 24-463): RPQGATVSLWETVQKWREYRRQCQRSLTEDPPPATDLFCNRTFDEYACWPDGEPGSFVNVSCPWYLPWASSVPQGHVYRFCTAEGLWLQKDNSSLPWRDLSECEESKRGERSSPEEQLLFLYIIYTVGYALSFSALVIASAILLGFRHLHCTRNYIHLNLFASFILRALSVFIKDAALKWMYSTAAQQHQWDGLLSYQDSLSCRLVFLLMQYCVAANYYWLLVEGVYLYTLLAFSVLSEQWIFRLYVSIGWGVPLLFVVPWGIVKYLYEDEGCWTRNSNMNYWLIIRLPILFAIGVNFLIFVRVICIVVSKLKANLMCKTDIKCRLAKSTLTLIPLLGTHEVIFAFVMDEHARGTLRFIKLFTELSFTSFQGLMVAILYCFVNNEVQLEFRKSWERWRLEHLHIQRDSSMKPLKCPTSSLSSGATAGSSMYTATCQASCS
T1 sequence (P01275 100-127 partner limits assumed): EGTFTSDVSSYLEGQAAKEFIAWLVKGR

This experiment addresses T1, GLP-1R (Homo sapiens, UniProt P43220).
T1 construct: host or cells: GLP-1R CRE-bla CHO-K1 cells
Put plainly: EC20 GLP-1(9-36) PAM cAMP assay: dose response of compound in the presence of fixed concentration of GLP-1(9-36). Conditions: dose response of compound in presence of fixed concentration of GLP-1(9-36), GLP-1R CRE-bla CHO-K1 cells, read-out: EC20 GLP-1(9-36) PAM EC50. The class given is cell-based. The essentials: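 Positive allosteric modulation read as cAMP accumulation: compound titrations (12 points) combined with an EC20 level of GLP-1(9-36) on CHO-K1 GLP-1R CRE-bla cells, IBMX present, 30 min, 37 °C, pH 7.4 buffer. Luminescence converted to cAMP via standards; non-linear fit gave EC50 and Emax.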
(Changes in cAMP serve as a functional read-out for many G protein-coupled receptors.)
Take `CCCCCCCOc1ccc(-c2cnc(-c3ccc(C[C@H](NC(=O)c4ccc(C(C)(C)C)s4)C(=O)NC(Cc4ccccc4)C(=O)O)cc3)nc2)cc1` (stereo partly drawn) [Compound 611]: the concentration giving a half-maximal response (EC50) (commonly the concentration at which the effect is half-maximal) is under 800 nM.
Next, `CCCCCCCOc1ccc(-c2cnc(-c3ccc(C[C@H](NC(=O)c4ccc(C(C)(C)C)s4)C(=O)N4C[C@H](O)C[C@H]4C(=O)O)cc3)nc2)cc1` [Compound 612]: under 800 nM; `CCCCCCCOc1ccc(-c2cnc(-c3ccc(C[C@H](NC(=O)c4ccc(C(C)(C)C)s4)C(=O)N4CCC(CC(=O)O)C4)cc3)nc2)cc1` (stereo partly drawn) [Compound 613]: 800 to 2500 nM; `CCCCCCCOc1ccc(-c2cnc(-c3ccc(C[C@H](NC(=O)c4ccc(C(C)(C)C)s4)C(=O)N4C(C(=O)O)CCC4C(=O)O)cc3)nc2)cc1` (stereo partly drawn) [Compound 614]: 800 to 2500 nM.
Take `CCCCCCCOc1ccc(-c2cnc(-c3ccc(C[C@H](NC(=O)c4ccc(C(C)(C)C)s4)C(=O)NC(Cc4ccc(Cl)cc4)C(=O)O)cc3)nc2)cc1` (stereo partly drawn) [Compound 615]: the EC50 was 5000 to 10000 nM.
Next, `CCCCCCCOc1ccc(-c2cnc(-c3ccc(C[C@H](NC(=O)c4ccc(C(C)(C)C)s4)C(=O)N[C@@H](Cc4cccnc4)C(=O)O)cc3)nc2)cc1` [Compound 616]: 800 to 2500 nM.
Next, `CCCCCCCOc1ccc(-c2cnc(-c3ccc(C[C@H](NC(=O)c4ccc(C(C)(C)C)s4)C(=O)N[C@@H](Cc4cccnc4)C(=O)O)cc3)nc2)cc1` [Compound 617]: under 800 nM.
Next, `CCCCCCCOc1ccc(-c2cnc(-c3ccc(C[C@H](NC(=O)c4ccc(C(C)(C)C)s4)C(=O)NC(C(=O)O)c4ccc(C(F)(F)F)cc4)cc3)nc2)cc1` (stereo partly drawn) [Compound 618]: 5000 to 10000 nM.
With `CCCCCCCOc1ccc(-c2cnc(-c3ccc(C[C@H](NC(=O)c4ccc(C(C)(C)C)s4)C(=O)NC(C(=O)O)c4ccc(OC)cc4)cc3)nc2)cc1` (stereo partly drawn) [Compound 619], the EC50 fell in the range of 800 to 2500 nM.
For `CCCCCCCOc1ccc(-c2cnc(-c3ccc(C[C@H](NC(=O)c4ccc(C(C)(C)C)s4)C(=O)N[C@H](C(=O)O)C(C)(C)C)cc3)nc2)cc1` [Compound 620], the EC50 fell in the range of 5000 to 10000 nM.
Next, `CCCCCCCOc1ccc(-c2cnc(-c3ccc(C[C@H](NC(=O)c4ccc(C(C)(C)C)s4)C(=O)N4CCCC4CC(=O)O)cc3)nc2)cc1` (stereo partly drawn) [Compound 621]: 2500 to 5000 nM; `CCCCCCCOc1ccc(-c2cnc(-c3ccc(C[C@H](NC(=O)c4ccc(C(C)(C)C)cc4)C(=O)N4C[C@H](N(C)C)C[C@H]4C(=O)O)cc3)nc2)cc1` [Compound 622]: 800 to 2500 nM; `CCCCCCCOc1ccc(-c2cnc(-c3ccc(C[C@H](NC(=O)c4ccc(C(C)(C)C)cc4)C(=O)N4C[C@H](OC(C)(C)C)C[C@H]4C(=O)O)cc3)nc2)cc1` [Compound 623]: 800 to 2500 nM.
With `CCCCCCCOc1ccc(-c2cnc(-c3ccc(C[C@H](NC(=O)c4ccc(C(C)(C)C)cc4)C(=O)N4CC(OC)CC4C(=O)O)cc3)nc2)cc1` (stereo partly drawn) [Compound 624], the EC50 is under 800 nM.
`CCCCCCCOc1ccc(-c2cnc(-c3ccc(CC(NC(=O)c4ccc(C(C)(C)C)s4)C(=O)N4CCC(C(=O)O)C4)cc3)nc2)cc1` (stereo not drawn) [Compound 625]: the concentration for a half-maximal effect (EC50) is under 800 nM.
Consider `CCCCCCCOc1ccc(-c2cnc(-c3ccc(C[C@H](NC(=O)c4ccc(C(C)(C)C)s4)C(=O)NC(Cc4c[nH]c5ncccc45)C(=O)O)cc3)nc2)cc1` (stereo partly drawn) [Compound 626], for which the EC50 is under 800 nM.
Then `CCCCCCCOc1ccc(-c2cnc(-c3ccc(C[C@H](NC(=O)c4ccc(C(C)(C)C)s4)C(=O)N[C@@H](Cc4cscn4)C(=O)O)cc3)nc2)cc1` [Compound 627], with under 800 nM; and `CCCCCCCOc1ccc(-c2cnc(-c3ccc(C[C@H](NC(=O)c4ccc(C(C)(C)C)s4)C(=O)N[C@@H](Cc4ccccn4)C(=O)O)cc3)nc2)cc1` [Compound 628], with 800 to 2500 nM; and `CCCCCCCOc1ccc(-c2cnc(-c3ccc(C[C@H](NC(=O)c4ccc(C(C)(C)C)s4)C(=O)NC(C(=O)O)c4cccc(OC)c4)cc3)nc2)cc1` (stereo partly drawn) [Compound 629], with 800 to 2500 nM.
Then `CCCCCCCOc1ccc(-c2cnc(-c3ccc(C[C@H](NC(=O)c4ccc(C(C)(C)C)s4)C(=O)N[C@H](CC(=O)O)C(=O)NC)cc3)nc2)cc1` [Compound 630], with under 800 nM; and `CCCCCCCOc1ccc(-c2cnc(-c3ccc(C[C@H](NC(=O)c4ccc(C(C)(C)C)s4)C(=O)N4CC(C)C(C(=O)O)C4)cc3)nc2)cc1` (stereo partly drawn) [Compound 631], with 800 to 2500 nM.
Then `CCCCCCCOc1ccc(-c2cnc(-c3ccc(C[C@H](NC(=O)c4ccc(C(C)(C)C)cc4)C(=O)N4CC[C@H](C(=O)O)C4)cc3)nc2)cc1` [Compound 632], with 800 to 2500 nM.
On to `CCCCCCCOc1ccc(-c2cnc(-c3ccc(C[C@H](NC(=O)c4ccc(C(C)(C)C)s4)C(=O)NC(CCCC(=O)O)C(=O)O)cc3)nc2)cc1` (stereo partly drawn) [Compound 633], for which the EC50 was in the range of 800 to 2500 nM.
Then `CCCCCCCOc1ccc(-c2cnc(-c3ccc(C[C@H](NC(=O)c4ccc(C(C)(C)C)s4)C(=O)NC(C(=O)O)C(O)c4ccccc4)cc3)nc2)cc1` (stereo partly drawn) [Compound 634], with under 800 nM; and `CCCCCCCOc1ccc(-c2cnc(-c3ccc(C[C@H](NC(=O)c4ccc(C(C)(C)C)s4)C(=O)N4CC(C(=O)O)C4)cc3)nc2)cc1` [Compound 635, (S)-1-(2-(5-(tert-butyl)thiophene-2-carboxamido)-3-(4-(5-(4-(heptyloxy)phenyl)pyrimidin-2-yl)phenyl)propanoyl)azetidine-3-carboxylic acid], with under 800 nM.
Next, `CCCCCCCOc1ccc(-c2cnc(-c3ccc(C[C@H](NC(=O)c4ccc(C(C)(C)C)s4)C(=O)NC(C(=O)O)C(C)c4ccccc4)cc3)nc2)cc1` (stereo partly drawn) [Compound 636]: under 800 nM; `CCCCCCCOc1ccc(-c2cnc(-c3ccc(C[C@H](NC(=O)c4ccc(C(C)(C)C)s4)C(=O)N4CCC(C)(C(=O)O)C4)cc3)nc2)cc1` (stereo partly drawn) [Compound 637]: 800 to 2500 nM.
For the molecule `CCCCCCCOc1ccc(-c2cnc(-c3ccc(C[C@H](NC(=O)c4ccc(C(C)(C)C)s4)C(=O)N4CC(C(=O)O)C(C)(C)C4)cc3)nc2)cc1` (stereo partly drawn) [Compound 638], the 50% effective concentration (EC50) lay within 2500 to 5000 nM.
Next, `CCCCCCCOc1ccc(-c2cnc(-c3ccc(C[C@H](NC(=O)c4ccc(C(C)(C)C)s4)C(=O)N[C@@H](Cn4cncn4)C(=O)O)cc3)nc2)cc1` [Compound 639]: under 800 nM; `CCCCCCCOc1ccc(-c2cnc(-c3ccc(C[C@H](NC(=O)c4ccc(C(C)(C)C)s4)C(=O)N4C[C@@H](C#N)C[C@H]4C(=O)O)cc3)nc2)cc1` [Compound 640]: under 800 nM; `CCCCCCCOc1ccc(-c2cnc(-c3ccc(C[C@H](NC(=O)c4ccc(C(C)(C)C)s4)C(=O)N4C[C@H](C#N)C[C@H]4C(=O)O)cc3)nc2)cc1` [Compound 641]: under 800 nM.
Take `CCCCCCCOc1ccc(-c2cnc(-c3ccc(C[C@H](NC(=O)c4ccc(C(C)(C)C)s4)C(=O)N[C@H](C(=O)O)[C@H](O)c4ccccc4)cc3)nc2)cc1` [Compound 642]: the half-maximal effective concentration (EC50) is under 800 nM.
Next, `CCCCCCCOc1ccc(-c2cnc(-c3ccc(C[C@H](NC(=O)c4ccc(C(C)(C)C)s4)C(=O)NC(C(=O)O)C(O)c4ccc(OC)cc4)cc3)nc2)cc1` (stereo partly drawn) [Compound 644]: under 800 nM.
Then `CCCCCCCOc1ccc(-c2cnc(-c3ccc(C[C@H](NC(=O)c4ccc(C(C)(C)C)s4)C(=O)N[C@H](C(=O)O)[C@@H](C)O)cc3)nc2)cc1` [Compound 645], with under 800 nM; and `CCCCCCCOc1ccc(-c2cnc(-c3ccc(C[C@H](NC(=O)c4ccc(C(C)(C)C)s4)C(=O)N[C@H](C(=O)O)[C@H](C)O)cc3)nc2)cc1` [Compound 646], with under 800 nM.
Next, `CCCCCCCOc1ccc(-c2cnc(-c3ccc(C[C@H](NC(=O)c4ccc(C(C)(C)C)s4)C(=O)N[C@H](Cc4ccccc4)C(=O)O)cc3)nc2)cc1` [Compound 647]: under 800 nM.
In the case of `CCCCCCCOc1ccc(-c2cnc(-c3ccc(C[C@H](NC(=O)c4ccc(C(C)(C)C)s4)C(=O)N[C@@H](Cc4ccccc4)C(=O)O)cc3)nc2)cc1` [Compound 648], the EC50 was in the range of 800 to 2500 nM.
`CCCCCCCOc1ccc(-c2cnc(-c3ccc(C[C@H](NC(=O)c4ccc(C(C)(C)C)s4)C(=O)N4CC(C(=O)NS(=O)(=O)CC(=O)O)C4)cc3)nc2)cc1` [Compound 649]: the EC50 was in the range of 800 to 2500 nM.
Next, `CCCCCCCOc1ccc(-c2cnc(-c3ccc(C[C@H](NC(=O)c4ccc(C(C)(C)C)s4)C(=O)N4CC(C(=O)NS(C)(=O)=O)C4)cc3)nc2)cc1` [Compound 650]: under 800 nM; `CCCCCCCOc1ccc(-c2cnc(-c3ccc(C[C@H](NC(=O)c4ccc(C(C)(C)C)s4)C(=O)NC(C(=O)O)[C@@H](O)c4ccccc4)cc3)nc2)cc1` (stereo partly drawn) [Compound 651]: under 800 nM.
`CCCCCCCOc1ccc(-c2cnc(-c3ccc(C[C@H](NC(=O)c4ccc(C(C)(C)C)s4)C(=O)N4CCC(F)(C(=O)O)C4)cc3)nc2)cc1` (stereo partly drawn) [Compound 652]: the EC50 is under 800 nM.
Take `CCCCCCCOc1ccc(-c2cnc(-c3ccc(C[C@H](NC(=O)c4ccc(C(C)(C)C)s4)C(=O)N4CC(C(=O)O)CCC4C)cc3)nc2)cc1` (stereo partly drawn) [Compound 653]: the EC50 was under 800 nM.
In the case of `CCCCCCCOc1ccc(-c2cnc(-c3ccc(C[C@H](NC(=O)c4ccc(C(C)(C)C)s4)C(=O)N4CC(C(=O)NS(=O)(=O)CC(=O)OC)C4)cc3)nc2)cc1` [Compound 654, methyl (S)-2-(N-(1-(2-(5-(tert-butyl)thiophene-2-carboxamido)-3-(4-(5-(4-(heptyloxy)phenyl)pyrimidin-2-yl)phenyl)propanoyl)azetidine-3-carbonyl)sulfamoyl)acetate], the EC50 is under 800 nM.
As for `CCCCCCCOc1ccc(-c2cnc(-c3ccc(C[C@H](NC(=O)c4ccc(C(C)(C)C)s4)C(=O)NC(C(=O)O)C(O)c4ccc(S(C)(=O)=O)cc4)cc3)nc2)cc1` (stereo partly drawn) [Compound 655], the 50% effective concentration (EC50) is 800 to 2500 nM.
Then `CCCCCCCOc1ccc(-c2cnc(-c3ccc(C[C@H](NC(=O)c4ccc(C(C)(C)C)s4)C(=O)N[C@@H](C(=O)O)[C@@H](C)CC)cc3)nc2)cc1` [Compound 656], with 800 to 2500 nM.
